Test: gradient 5% acetonitrile 3 min, to 50% in 2 min, to 85% in 15 min, held 3 min, 100 µL/min
Conditions: column: Zorbax Extend-C18 2.1 x 50 mm; eluents: water / acetonitrile, 0.1% formic acid
Method in brief: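 Mixtures of ~100 pure standards were chromatographed on a Zorbax Extend-C18 column (2.1 × 50 mm, 1.8 μm) at 100 μL/min using water and acetonitrile, each with 0.1% formic acid. Detection used a quadrupole time-of-flight mass spectrometer in positive and negative ionization mode, and data collection spanned 3 months. Retention time was obtained from adduct peaks picked computationally and each checked manually.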

Structure (SMILES)	RP-LC retention time [s]
CCC(C)NC(=O)N1CC(Oc2ccc(-c3noc(COC)n3)cc2)C1 (stereo not drawn)	794
COc1ccc(NC(=O)N2CCCC(C)(C(=O)NCc3ccccc3)C2)cc1OC (stereo not drawn)	846
Cc1ccc2c(C(=O)NCc3cc(F)cc(F)c3)cc(NC(=O)C(C)C)cc2n1	666
Cc1ccc(CN(C)Cc2cc(=O)n3cc(Cl)ccc3n2)cc1	629
COc1ccc(F)cc1S(=O)(=O)N1C[C@@H]2C[C@H]1C[C@@H]2NC(=O)c1ccccc1	786
Cc1cc2[nH]c(C(=O)Nc3ccc(F)c(F)c3F)c(CN(C)C)c2s1	688
CCCCn1cc(S(=O)(=O)Nc2cccc(OC)c2)c2cccnc21	912
Cc1cc(C)n2nc(SCC(=O)NC(C)C)nc2n1	613
CCC(C)NC(=O)c1nccnc1NC(=O)c1ccccc1 (stereo not drawn)	899
O=C(c1ccncc1)N1CC(C(=O)N2CCSCC2)C2(CCCCC2)C1 (stereo not drawn)	620
CCOC(=O)[C@H](CCc1ccccc1)N[C@@H](C)C(=O)N1CCC[C@@H]1C(=O)O	647
CC(=O)Nc1ccc(C(=O)NC(C(=O)N2CCCc3ccccc32)c2ccccc2)cc1 (stereo not drawn)	850
CCCc1cnc2c(c1SCC(=O)N(CC)CC)c(=O)n(C)c(=O)n2C	892
CNC(=O)C1CCN(C(=O)Nc2ccc(NC(=O)Nc3ccc(C)cc3)cc2)CC1	658
COc1cccc(-c2nnc(Cc3nc(-c4ccc(OC)c(OC)c4)no3)o2)c1	894
CCCn1c(=O)sc2cc(S(=O)(=O)N3CCC(C(=O)N(C)Cc4ccccc4)CC3)ccc21	985
O=C(Nc1cc(F)ccc1Cl)c1cnc(-c2ccc(F)cc2)nc1-c1ccncc1	1010
Cc1cnn(Cc2nc(-c3ccc(NC(=O)c4ccsc4)cc3)oc2C)c1	876
Cc1cnc(C2CC2)n1CCNC(=O)C1CC(=O)N(C2CCCCC2)C1 (stereo not drawn)	594

Structure (SMILES)	RP-LC retention time [s]
CC(C)CC(=O)N1CCCC(COc2ccc(C(=O)NC(C)C)cc2)C1 (stereo not drawn)	827
CNC(=O)[C@@H]1C[C@H](Oc2ccccc2)CN1S(=O)(=O)N(C)C	702
CS(=O)(=O)N1CCOc2ccc(CCC(N)=O)cc2C1	628
COc1cccc(-c2noc(Cn3cnc4c(nnn4-c4ccccc4OC)c3=O)n2)c1	914
Cc1cc(F)ccc1S(=O)(=O)NCCc1ccsc1	900
COc1ccc(CNC(=O)N2C[C@@H]3C[C@H]2C[C@@H]3NS(=O)(=O)c2ccccc2)cc1	764
Cc1ccc(C)c(CNC(=O)c2cccn2Cc2noc(C)n2)c1	893
CCCOC(=O)C1=C(C)NC2=C(C(=O)C(C(=O)OC)C(C)C2)C1c1ccccc1OC (stereo not drawn)	906
CC(C)CNC(=O)CN1C(=O)C2CCCCN2c2ccc(S(=O)(=O)N(C)C)cc21 (stereo not drawn)	698
COc1cc(NC(=O)CN2CCN(Cc3ccc(C)cc3)C(=O)C2=O)cc(OC)c1OC	709
CCC(C)n1c(=O)c2ccccc2n(Cc2nc(-c3ccc(Cl)cc3)no2)c1=O (stereo not drawn)	1280
Cc1cc(NC(=O)Cn2cnc(-c3cccs3)cc2=O)sn1	654
Cn1nnc2ccc(-c3noc(-c4ccc(F)cc4)n3)cc21	981
CC1(C)CC(O)CC(C)(C)N1CC(O)COc1ccc(Cl)cc1Cl (stereo not drawn)	590
Cc1ccc(C)c(NC(=O)Cc2csc(C)n2)c1	788
CCN1CCN(CCCNS(=O)(=O)c2cccc(-c3nc(-c4ccc(C)cc4)no3)c2)CC1	690
COCCC1CCN(C(=O)CN(C)C(=O)Cc2c(C)noc2C)CC1	627
CC(C)S(=O)(=O)N1CCC(F)(c2nc(-c3ccccc3)no2)CC1	1020
CCn1cc(CCNC(=O)CC(C)C)c2cccnc21	656

Structure (SMILES)	RP-LC retention time [s]
COc1ccc2c(c1)C1(CCN(C(=O)c3cccc(Cl)c3)C1)C(=O)N2 (stereo not drawn)	753
COC(=O)c1cc(C)nc2c1c(=O)n(Cc1ccc(Cl)cc1)c(=O)n2Cc1ccco1	1160
COc1ccccc1-c1nc(-c2ccc3c(c2)nnn3CCN(C)C)no1	644
Cc1ccc(C(=O)Nc2nc(-c3ccc4c(c3)NC(=O)CO4)cs2)cc1	873
COc1ccc(OCc2nn3c(COc4ccc(F)cc4)nnc3s2)cc1	928
COc1cccc(C2CC(c3cccs3)=NN2C(=O)C(OC)c2ccccc2)c1O (stereo not drawn)	937
CC1Oc2ccc(-c3csc(NC(=O)c4cccc(Br)c4)n3)cc2N(C)C1=O (stereo not drawn)	960
COc1ccc(-c2ccnc3nc(CCc4ccc(OC)c(OC)c4)nn23)c(F)c1	867
CC(C)(C)c1cccc(Nc2nc3ccncc3n(Cc3ccccc3)c2=O)c1	963
Cc1cc2oc(C(=O)NCC(c3ccccc3)N(C)C)cc(=O)c2cc1C (stereo not drawn)	639
CNC(=O)c1n[nH]c2c1CC(C(C)(C)C)CC2 (stereo not drawn)	786
Cc1ccc(-c2nnc(Cc3nc(-c4cccs4)no3)o2)cc1F	1010
CSc1ccc(-c2nc3cc(C)ccn3c2Nc2ccc3c(c2)OCO3)cc1	748
CCn1nc(C)c(S(=O)(=O)N2CCN(C(=O)C(C)Oc3ccccc3)CC2)c1C (stereo not drawn)	780
CC(C)(Oc1ccc(Cl)cc1)C(=O)NCCNc1cc(-n2cccn2)ncn1	814
COc1ncc(C(=O)Nc2ccc(C)cc2C)c(C)n1	736
O=C(NCc1cccnc1)C1c2ccccc2C(=O)N1Cc1ccc2c(c1)OCO2 (stereo not drawn)	609
Cc1cccc(NS(=O)(=O)c2c(C)sc(C)c2-c2cc(C(F)(F)F)on2)c1	1180

Now from value to molecule:

RP-LC retention time [s]	Structure (SMILES)
702	COCc1cc(=O)n(CC(=O)Nc2ccc(OC)c(OC)c2)c(N2CCOCC2)n1
731	Cc1cnc(C(=O)N2CC(n3cc(COc4ccc(F)cc4)nn3)C2)cn1
983	CCc1ccc(CNC(=O)C2Cc3cc(S(=O)(=O)N4CCCCC4)ccc3N2C(C)=O)cc1 (stereo not drawn)
633	O=S(=O)(c1ccc2c(c1)OCCO2)N1CCC(Cc2nc(-c3cccnc3)n[nH]2)C1 (stereo not drawn)
905	CCc1ccc(NC(=O)NC2CCN(c3ccc(F)c(C)c3)C2=O)cc1 (stereo not drawn)
949	CC1(C(=O)NCc2ccc(F)cc2)CCCN(C(=O)Nc2ccccc2C(F)(F)F)C1 (stereo not drawn)
1030	O=C(Cn1cccc1-c1nc(-c2ccc3c(c2)OCO3)no1)Nc1ccc(F)c(Cl)c1
586	O=S1(=O)C[C@H](N2CCN(c3ccccn3)CC2)[C@@H](S(=O)(=O)c2cccs2)C1
603	CCOC(=O)c1noc2ncnc(NCC3CCN(Cc4ccccc4Cl)CC3)c12
592	CCc1cc(C(=O)NCCN2CCOCC2)nc2cc(-c3ccccn3)nn12
661	CC1CCCN(CCCNC(=O)c2cc(S(=O)(=O)N3CCCCC3)ccc2Cl)C1 (stereo not drawn)
1050	Cc1cc(=O)n(CC(=O)Nc2ccc(F)cc2F)c(-c2ccc(F)cc2)n1
970	O=C(Nc1cccc(OCc2nnc(-c3ccc(Cl)cc3)o2)c1)c1ccoc1
929	CCc1nc(-c2ccc(S(=O)(=O)N3CCC(C(=O)Nc4ccc5c(c4)OCCO5)CC3)cc2)no1
760	Cc1ccccc1CNC(=O)C1CCCN(C(=O)C2Sc3ccccc3NC2=O)C1 (stereo not drawn)
671	Cc1cc(C)cc(NC(=O)N2CCCC(Cn3c(C)nc4cccnc43)C2)c1 (stereo not drawn)

RP-LC retention time [s]	Structure (SMILES)
610	CCOc1cc(=O)c(C(=O)N2CCC(C(N)=O)CC2)nn1-c1ccc(C)cc1
686	CCCCN(C)C(=O)C1CCCN(c2cnc3nccnc3c2)C1 (stereo not drawn)
745	Cc1nc(-c2ccc(F)cc2)sc1C(=O)N1CCC(C(C)C(=O)N2CCOCC2)CC1 (stereo not drawn)
915	Cc1cc(C)cc(NC(=O)COc2cc(C)nc(N3CCN(c4ccccc4)CC3)n2)c1
818	CN(C1CCc2nn(CC3CC3)c(=O)n2CC1)S(=O)(=O)c1cccc(Cl)c1 (stereo not drawn)
1160	O=C(Cn1nc(N2CCCCCC2)c2ccccc2c1=O)Nc1ccc(Cl)cc1
698	COc1cc(C(=O)NC2CCN(c3cc(-c4cccs4)[nH]n3)C2)cc(OC)c1OC (stereo not drawn)
1060	Cc1ccc(Cl)cc1N1CCN(C(=O)c2[nH]c(C)c(S(=O)(=O)N3CCCC3)c2C)CC1
1000	COc1ccc(C)cc1NC(=O)CN1C(=O)C2CCCCN2c2ccc(S(=O)(=O)N(C)C)cc21 (stereo not drawn)
576	O=C(NC1CC1)c1ccc(N2CCC(NCc3cc(Br)ccc3O)C2)nc1 (stereo not drawn)
649	O=C(Nc1ccc(Cl)cc1F)NC1CCN(c2cc(N3CCOCC3)cnn2)C1 (stereo not drawn)
878	CCc1nnc(-c2ccc3ccn(CC(=O)N4CCN(c5ccc(F)cc5)CC4)c3c2)o1
884	CC(=O)N1CCc2sc(S(=O)(=O)N3CCN(c4ccccc4)CC3)cc2C1
847	Cc1ccc(-n2c(N3CCCC(C(=O)NCC(C)C)C3)nc3ccsc3c2=O)cc1 (stereo not drawn)
573	CCC1Oc2ccc(S(=O)(=O)N3CCC(C(=O)N4CCN(CC)CC4)CC3)cc2NC1=O (stereo not drawn)
1010	O=C(N1CCC(Cc2noc(-c3ccc(F)cc3)n2)C1)C1(c2ccccc2)CC1 (stereo not drawn)

From the METLIN SMRT retention time set (Domingo-Almenara et al. 2019)
